Laboratory results from the NIST ThermoML archive (doi:10.1021/acs.jced.6b00516).
± gives the expanded uncertainty stated by the source.

Legend:
[1] = xn = mol fraction of the nth substance listed; details: 102 kPa, Liquid, Concentric cylinders viscometry, x2 = 0
[2] = for viscosity / speed of sound / mass density: 102 kPa, Liquid; for viscosity: Concentric cylinders viscometry; for speed of sound: Frequency=3 MHz, Sing-around technique in a fixed-path interferometer; for mass density: Vibrating tube method; for surface tension liquid-gas: Sessile Drop

Compound: Cc1ccccc1 [toluene] + CCCCC1CCCCC1
- viscosity ([1]; 293.15 K): 0.607 ± 0.011 mPa·s
- viscosity ([1]; 303.15 K): 0.54 ± 0.011 mPa·s
- viscosity ([1]; 313.15 K): 0.483 ± 0.011 mPa·s
- viscosity ([1]; 323.15 K): 0.434 ± 0.011 mPa·s
- viscosity ([1]; 333.15 K): 0.391 ± 0.011 mPa·s
- viscosity ([1]; 343.15 K): 0.349 ± 0.011 mPa·s
- viscosity ([1]; 353.15 K): 0.307 ± 0.011 mPa·s

Compound: CCCCCCCCCCCCCCCC [hexadecane] + CCCCC1CCCCC1
- viscosity ([1]; 293.15 K): 3.44 ± 0.02 mPa·s
- viscosity ([1]; 303.15 K): 2.72 ± 0.02 mPa·s
- viscosity ([1]; 313.15 K): 2.21 ± 0.02 mPa·s
- viscosity ([1]; 323.15 K): 1.83 ± 0.01 mPa·s
- viscosity ([1]; 333.15 K): 1.54 ± 0.01 mPa·s
- viscosity ([1]; 343.15 K): 1.31 ± 0.01 mPa·s
- viscosity ([1]; 353.15 K): 1.14 ± 0.01 mPa·s

Compound: CCCCC1CCCCC1 [butylcyclohexane]
- viscosity ([2]; 293.15 K): 1.31 ± 0.01 mPa·s
- speed of sound ([2]; 293.15 K): 1328.4 ± 0.8 m/s
- mass density ([2]; 293.15 K): 799.33 ± 0.14 kg/m3
- surface tension liquid-gas ([2]; 294 K): 26.7 ± 0.2 mN/m
- viscosity ([2]; 303.15 K): 1.12 ± 0.01 mPa·s
- speed of sound ([2]; 303.15 K): 1288.7 ± 0.8 m/s
- mass density ([2]; 303.15 K): 791.82 ± 0.14 kg/m3
- viscosity ([2]; 313.15 K): 0.961 ± 0.012 mPa·s
- speed of sound ([2]; 313.15 K): 1249.5 ± 0.8 m/s
- mass density ([2]; 313.15 K): 784.28 ± 0.14 kg/m3
- viscosity ([2]; 323.15 K): 0.837 ± 0.012 mPa·s
- speed of sound ([2]; 323.15 K): 1210.8 ± 0.8 m/s
- mass density ([2]; 323.15 K): 776.7 ± 0.14 kg/m3
- viscosity ([2]; 333.15 K): 0.735 ± 0.011 mPa·s
- speed of sound ([2]; 333.15 K): 1172.8 ± 0.8 m/s
- mass density ([2]; 333.15 K): 769.09 ± 0.14 kg/m3
- viscosity ([2]; 343.15 K): 0.648 ± 0.011 mPa·s
- mass density ([2]; 343.15 K): 761.4 ± 0.2 kg/m3
- viscosity ([2]; 353.15 K): 0.576 ± 0.021 mPa·s
- mass density ([2]; 353.15 K): 753.7 ± 0.3 kg/m3

Compound: CCCCCCCCCCCCCCCC [hexadecane]
- viscosity ([2]; 293.15 K): 3.44 ± 0.02 mPa·s
- speed of sound ([2]; 293.15 K): 1357.2 ± 0.8 m/s
- mass density ([2]; 293.15 K): 773.41 ± 0.14 kg/m3
- surface tension liquid-gas ([2]; 294 K): 27.1 ± 0.3 mN/m
- viscosity ([2]; 303.15 K): 2.72 ± 0.02 mPa·s
- speed of sound ([2]; 303.15 K): 1319.5 ± 0.8 m/s
- mass density ([2]; 303.15 K): 766.47 ± 0.14 kg/m3
- viscosity ([2]; 313.15 K): 2.21 ± 0.02 mPa·s
- speed of sound ([2]; 313.15 K): 1283.3 ± 0.8 m/s
- mass density ([2]; 313.15 K): 759.55 ± 0.15 kg/m3
- viscosity ([2]; 323.15 K): 1.83 ± 0.01 mPa·s
- speed of sound ([2]; 323.15 K): 1247.3 ± 0.8 m/s
- mass density ([2]; 323.15 K): 752.63 ± 0.15 kg/m3
- viscosity ([2]; 333.15 K): 1.54 ± 0.01 mPa·s
- speed of sound ([2]; 333.15 K): 1212 ± 0.8 m/s
- mass density ([2]; 333.15 K): 745.71 ± 0.15 kg/m3
- viscosity ([2]; 343.15 K): 1.31 ± 0.01 mPa·s
- mass density ([2]; 343.15 K): 738.8 ± 0.2 kg/m3
- viscosity ([2]; 353.15 K): 1.14 ± 0.01 mPa·s
- mass density ([2]; 353.15 K): 731.9 ± 0.3 kg/m3
- viscosity ([2]; 363.15 K): 0.994 ± 0.012 mPa·s
- viscosity ([2]; 373.15 K): 0.878 ± 0.012 mPa·s

Compound: Cc1ccccc1 [toluene]
- viscosity ([2]; 293.15 K): 0.607 ± 0.011 mPa·s
- speed of sound ([2]; 293.15 K): 1326.6 ± 0.8 m/s
- mass density ([2]; 293.15 K): 866.84 ± 0.13 kg/m3
- surface tension liquid-gas ([2]; 294.2 K): 28.6 ± 0.2 mN/m
- viscosity ([2]; 303.15 K): 0.54 ± 0.011 mPa·s
- speed of sound ([2]; 303.15 K): 1283.6 ± 0.8 m/s
- mass density ([2]; 303.15 K): 857.52 ± 0.13 kg/m3
- viscosity ([2]; 313.15 K): 0.483 ± 0.011 mPa·s
- speed of sound ([2]; 313.15 K): 1241.1 ± 0.8 m/s
- mass density ([2]; 313.15 K): 848.14 ± 0.14 kg/m3
- viscosity ([2]; 323.15 K): 0.434 ± 0.011 mPa·s
- speed of sound ([2]; 323.15 K): 1199.2 ± 0.8 m/s
- mass density ([2]; 323.15 K): 838.68 ± 0.14 kg/m3
- viscosity ([2]; 333.15 K): 0.391 ± 0.011 mPa·s
- speed of sound ([2]; 333.15 K): 1157.7 ± 0.8 m/s
- mass density ([2]; 333.15 K): 829.15 ± 0.14 kg/m3
- viscosity ([2]; 343.15 K): 0.349 ± 0.027 mPa·s
- mass density ([2]; 343.15 K): 819.6 ± 0.2 kg/m3
- viscosity ([2]; 353.15 K): 0.307 ± 0.011 mPa·s
- mass density ([2]; 353.15 K): 809.8 ± 0.5 kg/m3
